Assay results reported in patent publication US10517889B2, “Modulators of SMAD7 expression” (Ionis Pharmaceuticals, Inc., priority 2017, dated 2019).
Strand notation (5' to 3'): a small letter for the sugar, then the base; units joined by * are phosphorothioate-linked, units joined directly phosphodiester-linked; [ ] holds rarer units or linkages, { } end groups; capitals alone tell only the bases. k = constrained ethyl (cEt); [5mC] = 5-methylcytosine; d = 2'-deoxy (DNA)

Tested on: human SMAD7 mRNA
Assay: Antisense inhibition of human SMAD7 mRNA expression in Hep3B cells by 3-10-3 cEt gapmers, 10,000 nM, electroporation (Example 2)
Type: cell-based
Conditions: Hep3B cells, 10,000 nM antisense oligonucleotide, electroporation, approximately 24 hours, RT-PCR primer probe set RTS5062, relative to untreated control cells
Outline: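 Hep3B cells (20,000 per well) were electroporated with 10,000 nM 16-mer 3-10-3 cEt gapmer (phosphorothioate, 5-methylcytosine). After about 24 h, SMAD7 mRNA was quantified by qRT-PCR with primer probe set RTS5062, normalised to RIBOGREEN total RNA, and expressed as percent inhibition versus untreated cells.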

Substance	% Inhibition [%]
799932 (antisense kT*k[5mC]*kA*dA*dG*dA*dG*dA*d[5mC]*dG*dG*dT*dG*kA*kG*k[5mC]) [compound 799932]	0
800058 (antisense kT*k[5mC]*kA*dT*d[5mC]*dA*dG*dG*d[5mC]*dA*dT*dT*d[5mC]*kA*k[5mC]*kT) [compound 800058]	51
772613 (kA*kT*kT*dG*dA*dG*d[5mC]*dT*dG*dT*d[5mC]*d[5mC]*dG*kA*kG*kG; antisense) [compound 772613]	7
798842 (k[5mC]*kA*kG*d[5mC]*dT*dG*dA*d[5mC]*dT*d[5mC]*dT*dT*dG*kT*kT*kG; antisense) [compound 798842]	0

Same assay, conditions: Hep3B cells, electroporation with 10,000 nM antisense oligonucleotide, approximately 24 hours, RTS5062, percent inhibition of SMAD7 mRNA relative to untreated control cells

Substance	% Inhibition [%]
799785 (k[5mC]*kT*k[5mC]*d[5mC]*dA*dG*dG*dT*dA*dG*dA*dG*dG*k[5mC]*kA*kA; antisense) [compound 799785]	0
799848 (kA*kG*k[5mC]*d[5mC]*dG*dA*dT*d[5mC]*dA*d[5mC]*dA*dA*dA*kA*kG*kG; antisense) [compound 799848]	59
799726 (antisense kG*kT*kA*dT*d[5mC]*d[5mC]*dT*dT*dT*d[5mC]*dA*d[5mC]*dG*kA*kG*kG) [compound 799726]	49
799315 (antisense k[5mC]*kA*k[5mC]*d[5mC]*dA*dA*dG*dA*dT*d[5mC]*d[5mC]*dA*dT*k[5mC]*kT*kT) [compound 799315]	15
799514 (antisense kT*k[5mC]*kG*dG*dA*dG*dT*dT*dT*d[5mC]*d[5mC]*dT*d[5mC]*kA*k[5mC]*kT) [compound 799514]	40

Same assay, conditions: Hep3B cells, electroporation with 10,000 nM antisense oligonucleotide, approximately 24 hours, SMAD7 mRNA by RT-PCR (RTS5062), relative to untreated control cells

Substance	% Inhibition [%]
830190 (antisense kT*kA*kA*dT*d[5mC]*dA*dG*dA*dT*dG*d[5mC]*d[5mC]*dT*kG*k[5mC]*kT) [compound 830190]	39
790458 (k[5mC]*kG*k[5mC]*d[5mC]*dA*dG*dT*d[5mC]*dT*d[5mC]*d[5mC]*d[5mC]*dG*kG*kA*kG; antisense) [compound 790458]	0
830205 (kG*kA*k[5mC]*dT*d[5mC]*dA*dT*d[5mC]*dA*dG*dG*d[5mC]*dA*kT*kT*k[5mC]; antisense) [compound 830205]	26
799506 (antisense kG*kG*kA*dG*dA*dG*d[5mC]*d[5mC]*d[5mC]*dG*dG*d[5mC]*dT*kA*kA*kG) [compound 799506]	4
790492 (kT*k[5mC]*k[5mC]*d[5mC]*dG*dT*dA*dA*dG*dA*dT*dT*d[5mC]*kA*k[5mC]*kA; antisense) [compound 790492]	38
798670 (kG*kG*k[5mC]*dG*dG*d[5mC]*dG*dG*d[5mC]*d[5mC]*d[5mC]*dG*dA*kG*kG*kG; antisense) [compound 798670]	44
799375 (antisense kG*k[5mC]*k[5mC]*dT*dA*dT*dA*d[5mC]*dT*dT*d[5mC]*dT*dG*kA*kA*kA) [compound 799375]	10
799414 (antisense k[5mC]*kA*kA*dA*dA*d[5mC]*d[5mC]*dA*dG*d[5mC]*d[5mC]*d[5mC]*d[5mC]*kA*kG*kA) [compound 799414]	34
798737 (antisense k[5mC]*kA*kG*dA*dT*d[5mC]*d[5mC]*dG*d[5mC]*d[5mC]*dT*d[5mC]*dG*kG*k[5mC]*kG) [compound 798737]	2
799466 (antisense kG*kA*k[5mC]*dA*dG*dA*dA*dG*d[5mC]*dT*d[5mC]*dT*dA*kG*kG*k[5mC]) [compound 799466]	53
799883 (kT*k[5mC]*kT*dA*dG*dA*dG*dG*dG*dT*dA*dG*dG*kA*kA*kA; antisense) [compound 799883]	9
799493 (antisense kA*kT*kA*d[5mC]*dA*d[5mC]*dT*dT*dA*dA*dT*d[5mC]*dA*kA*kA*k[5mC]) [compound 799493]	1
799929 (antisense kT*kG*k[5mC]*d[5mC]*d[5mC]*dA*dG*dG*d[5mC]*dT*dT*dG*dG*kT*kT*k[5mC]) [compound 799929]	9

Same assay, conditions: Hep3B cells, electroporation with 10,000 nM antisense oligonucleotide, approximately 24 hours, primer probe set RTS5062, relative to untreated control cells

Substance	% inhibition of SMAD7 mRNA expression [%]	% Inhibition [%]
798759 (kG*kG*k[5mC]*dG*dG*d[5mC]*dT*dG*d[5mC]*dG*d[5mC]*dA*dG*kG*k[5mC]*kT; antisense) [compound 798759]	40	
799158 (antisense kT*kA*kT*dG*dA*dG*dT*dT*dG*dT*dA*dG*dA*kA*kG*kA) [compound 799158]		33
799172 (antisense kA*kA*k[5mC]*dA*dT*dG*d[5mC]*dT*d[5mC]*dA*dT*dT*dG*kA*kG*k[5mC]) [compound 799172]	4	
798957 (antisense kA*kT*kT*d[5mC]*dT*dT*dT*dT*d[5mC]*dA*dT*dA*dA*kG*k[5mC]*kT) [compound 798957]		28
790695 (kT*kG*kA*dA*dA*dT*dG*dG*dT*dG*d[5mC]*dT*d[5mC]*kT*kG*k[5mC]; antisense) [compound 790695]	62	
799044 (k[5mC]*kA*kG*dA*dG*d[5mC]*d[5mC]*dG*dT*dG*d[5mC]*dT*d[5mC]*k[5mC]*kT*kG; antisense) [compound 799044]	0	
798749 (antisense kG*kG*kA*d[5mC]*dT*d[5mC]*d[5mC]*dA*d[5mC]*dG*dG*d[5mC]*d[5mC]*kT*kG*kG) [compound 798749]	63	
799400 (antisense kG*kG*kA*dA*dA*dA*d[5mC]*d[5mC]*dT*d[5mC]*d[5mC]*dA*dA*kA*kT*kT) [compound 799400]	0	
799012 (kA*kT*kA*dA*dG*dA*dG*dA*d[5mC]*dA*d[5mC]*dA*dA*kA*kA*k[5mC]; antisense) [compound 799012]	43	
798663 (kT*kG*k[5mC]*dG*d[5mC]*dT*d[5mC]*d[5mC]*dG*dG*d[5mC]*dT*dG*k[5mC]*k[5mC]*k[5mC]; antisense) [compound 798663]	41	
799338 (kT*kT*kA*dT*dA*dG*d[5mC]*dA*d[5mC]*dG*d[5mC]*d[5mC]*dT*k[5mC]*kT*k[5mC]; antisense) [compound 799338]	0	
799381 (antisense kA*kA*k[5mC]*dA*dG*dA*dT*d[5mC]*dT*dA*dT*d[5mC]*dT*k[5mC]*k[5mC]*kT) [compound 799381]	54	
772708 (kA*kA*kA*dG*dT*dG*d[5mC]*dA*dT*d[5mC]*dT*dT*dT*kT*k[5mC]*kT; antisense) [compound 772708]	0	
799132 (antisense kA*kA*kG*d[5mC]*dA*dT*dG*dT*d[5mC]*d[5mC]*d[5mC]*dT*d[5mC]*k[5mC]*k[5mC]*kA) [compound 799132]	38	

Same assay, conditions: Hep3B cells, electroporation, 10,000 nM antisense oligonucleotide, approximately 24 hours, RTS5062, relative to untreated control cells

Substance	% inhibition of SMAD7 mRNA expression [%]
799815 (antisense k[5mC]*kT*k[5mC]*dT*dT*dG*dA*dT*dG*dA*dT*d[5mC]*d[5mC]*kT*k[5mC]*kA) [compound 799815]	68
799521 (antisense kT*kA*kA*dA*dG*dA*d[5mC]*dA*dG*dG*dT*dT*dT*k[5mC]*k[5mC]*k[5mC]) [compound 799521]	57
799654 (antisense kG*k[5mC]*kT*dG*dA*dA*dT*dA*dA*d[5mC]*d[5mC]*dT*dA*k[5mC]*kA*kA) [compound 799654]	22

Same assay, conditions: SMAD7 mRNA, Hep3B cells, 10,000 nM antisense oligonucleotide, electroporation, approximately 24 hours, primer probe set RTS5062, relative to untreated control cells

Substance	% Inhibition [%]
790516 (kG*kT*kA*dA*d[5mC]*dT*dG*d[5mC]*dT*dG*d[5mC]*dG*dG*kT*kT*kG; antisense) [compound 790516]	45
829755 (antisense kT*kT*k[5mC]*dT*d[5mC]*d[5mC]*d[5mC]*d[5mC]*dG*d[5mC]*dA*dG*d[5mC]*kT*k[5mC]*kG) [compound 829755]	52
829720 (antisense kG*k[5mC]*kG*d[5mC]*d[5mC]*dA*dG*dT*d[5mC]*dT*d[5mC]*d[5mC]*d[5mC]*kG*kG*kA) [compound 829720]	14

Same assay, conditions: SMAD7 mRNA, Hep3B cells, electroporation with 10,000 nM antisense oligonucleotide, approximately 24 hours, primer probe set RTS5062, relative to untreated control cells

Substance	% Inhibition [%]
829809 (kG*kG*kG*dA*dG*dA*d[5mC]*dT*d[5mC]*dT*dA*dG*dT*kT*k[5mC]*kG; antisense) [compound 829809]	51
829907 (antisense kA*k[5mC]*k[5mC]*dG*dG*d[5mC]*dT*dG*dT*dT*dG*dA*dA*kG*kA*kT) [compound 829907]	23
829862 (antisense k[5mC]*kT*kG*d[5mC]*dT*dG*d[5mC]*dG*dG*dT*dT*dG*dT*kA*k[5mC]*kA) [compound 829862]	22
829964 (k[5mC]*kA*k[5mC]*d[5mC]*dT*dA*dG*dT*dT*d[5mC]*dG*d[5mC]*dA*kG*kA*kG; antisense) [compound 829964]	3
829881 (antisense k[5mC]*kG*kT*d[5mC]*d[5mC]*dT*dG*dG*dA*dG*dT*d[5mC]*d[5mC]*kG*kG*kG) [compound 829881]	39
829877 (antisense kT*k[5mC]*k[5mC]*dG*dG*dG*dT*dT*dG*dT*d[5mC]*d[5mC]*dA*kG*kT*kG) [compound 829877]	42
829895 (antisense kT*k[5mC]*kA*d[5mC]*dA*dA*dA*dG*d[5mC]*dT*dG*dA*dT*k[5mC]*kT*kG) [compound 829895]	37
